Test results as given in article PMC5218480 (PLoS ONE, 2017).

System: MV-4-11 cells
Assay: Gene expression microarray analysis (Affymetrix PrimeView) and GSEA
Type: cell-based, human
Design: RFU PODN (11730768_x_at) / Fold change /veh PODN (11730768_x_at) / RFU LINC00158 (11744669_a_at) / Fold change /veh LINC00158 (11744669_a_at) / RFU DUSP10 (11751237_a_at) / Fold change /veh DUSP10 (11751237_a_at) / RFU ID3 (11757404_x_at) / Fold change /veh ID3 (11757404_x_at) / RFU PLEKHG5 (11737974_s_at) / Fold change /veh PLEKHG5 (11737974_s_at) / RFU LRRC4B (11730491_at) / Fold change /veh LRRC4B (11730491_at) / RFU GIMAP4 (11747438_a_at) / Fold change /veh GIMAP4 (11747438_a_at) / RFU KRT8 (11758183_x_at) / Fold change /veh KRT8 (11758183_x_at) / RFU CNN1 (11734310_a_at) / Fold change /veh CNN1 (11734310_a_at) / RFU VPS37D (11726825_at) / Fold change /veh VPS37D (11726825_at) / RFU C10orf10 (11716522_x_at) / Fold change /veh C10orf10 (11716522_x_at) / RFU KIR2DL2 /// KIR2DL4 /// KIR2DL5A /// KIR2DL5B /// KIR2DS1 /// KIR2DS2 /// KIR2DS3 /// KIR2DS4 /// KIR3DL3 /// KIR3DL3 /// KIR3DS1 (11738374_at) / Fold change /veh KIR2DL2 /// KIR2DL4 /// KIR2DL5A /// KIR2DL5B /// KIR2DS1 /// KIR2DS2 /// KIR2DS3 /// KIR2DS4 /// KIR3DL3 /// KIR3DL3 /// KIR3DS1 (11738374_at) / RFU C1QL1 (11718748_at) / Fold change /veh C1QL1 (11718748_at) / RFU TMPRSS4 (11747572_a_at) / Fold change /veh TMPRSS4 (11747572_a_at) / RFU HAMP (11756126_x_at) / Fold change /veh HAMP (11756126_x_at) / RFU RNFT2 (11725882_a_at) / Fold change /veh RNFT2 (11725882_a_at) / RFU NR4A2 (11747474_a_at) / Fold change /veh NR4A2 (11747474_a_at) / RFU ABCC12 (11746883_a_at) / Fold change /veh ABCC12 (11746883_a_at) / RFU TMEM136 (11760407_x_at) / Fold change /veh TMEM136 (11760407_x_at) / RFU CLDN22 /// WWC2 (11732394_at) / Fold change /veh CLDN22 /// WWC2 (11732394_at) / RFU HLA-DPB1 (11760878_x_at) / Fold change /veh HLA-DPB1 (11760878_x_at) / RFU SPINT1 (11716480_a_at) / Fold change /veh SPINT1 (11716480_a_at) / RFU GAP43 (11754022_s_at) / Fold change /veh GAP43 (11754022_s_at) / RFU A4GNT (11735810_at) / Fold change /veh A4GNT (11735810_at) / RFU PRB3 (11715151_x_at) / Fold change /veh PRB3 (11715151_x_at) / RFU TUBB4B (11761932_at) / Fold change /veh TUBB4B (11761932_at) / RFU CAPN14 (11732068_a_at) / Fold change /veh CAPN14 (11732068_a_at) / RFU TMCC2 (11721928_a_at) / Fold change /veh TMCC2 (11721928_a_at) / RFU IRGQ (11745062_a_at) / Fold change /veh IRGQ (11745062_a_at) / RFU FAM174B (11720279_a_at) / Fold change /veh FAM174B (11720279_a_at) / RFU TMPRSS4 (11748680_a_at) / Fold change /veh TMPRSS4 (11748680_a_at) / RFU FAM212B (11763350_a_at) / Fold change /veh FAM212B (11763350_a_at) / RFU PLEKHG5 (11743358_a_at) / Fold change /veh PLEKHG5 (11743358_a_at) / RFU ZSCAN30 (11745921_a_at) / Fold change /veh ZSCAN30 (11745921_a_at) / RFU CMKLR1 (11741424_a_at) / Fold change /veh CMKLR1 (11741424_a_at) / RFU LOC101060620 /// MAPK8IP1 (11723275_at) / Fold change /veh LOC101060620 /// MAPK8IP1 (11723275_at) / RFU SPTSSB (11747773_x_at) / Fold change /veh SPTSSB (11747773_x_at) / RFU PRSS12 (11739890_at) / Fold change /veh PRSS12 (11739890_at) / RFU BIN1 (11741810_x_at) / Fold change /veh BIN1 (11741810_x_at) / RFU WNT11 (11732464_a_at) / Fold change /veh WNT11 (11732464_a_at) / RFU C10orf10 (11716521_a_at) / Fold change /veh C10orf10 (11716521_a_at) / RFU C5orf56 (11738089_at) / Fold change /veh C5orf56 (11738089_at) / RFU CYB561 (11721691_x_at) / Fold change /veh CYB561 (11721691_x_at) / RFU ANKRD19P (11752326_a_at) / Fold change /veh ANKRD19P (11752326_a_at) / RFU OR2T12 /// OR2T33 /// OR2T8 (11738714_s_at) / Fold change /veh OR2T12 /// OR2T33 /// OR2T8 (11738714_s_at) / RFU VCAN (11748164_a_at) / Fold change /veh VCAN (11748164_a_at) / RFU JSRP1 (11732532_at) / Fold change /veh JSRP1 (11732532_at) / RFU KRTAP10-11 (11738290_x_at) / Fold change /veh KRTAP10-11 (11738290_x_at) / RFU MYO3A (11730013_a_at) / Fold change /veh MYO3A (11730013_a_at) / RFU EBF3 (11725865_a_at) / Fold change /veh EBF3 (11725865_a_at) / RFU CAMK2N1 (11719241_x_at) / Fold change /veh CAMK2N1 (11719241_x_at) / RFU C5orf56 (11738088_a_at) / Fold change /veh C5orf56 (11738088_a_at) / RFU OLFML3 (11715873_a_at) / Fold change /veh OLFML3 (11715873_a_at) / RFU LOC100653217 /// NTM (11731650_a_at) / Fold change /veh LOC100653217 /// NTM (11731650_a_at) / RFU MAPK11 (11762145_a_at) / Fold change /veh MAPK11 (11762145_a_at) / RFU FIZ1 (11724087_x_at) / Fold change /veh FIZ1 (11724087_x_at) / RFU OASL (11726364_x_at) / Fold change /veh OASL (11726364_x_at) / RFU SOX15 (11748057_x_at) / Fold change /veh SOX15 (11748057_x_at) / RFU CD79A (11719716_a_at) / Fold change /veh CD79A (11719716_a_at) / RFU HIST1H1D (11736915_at) / Fold change /veh HIST1H1D (11736915_at) / RFU CASKIN2 (11723855_a_at) / Fold change /veh CASKIN2 (11723855_a_at) / RFU LOC730098 (11760151_x_at) / Fold change /veh LOC730098 (11760151_x_at) / RFU OR4N2 (11742367_at) / Fold change /veh OR4N2 (11742367_at) / RFU PRRT2 (11749266_a_at) / Fold change /veh PRRT2 (11749266_a_at) / RFU SNX32 (11753110_a_at) / Fold change /veh SNX32 (11753110_a_at) / RFU CDHR5 (11726645_a_at) / Fold change /veh CDHR5 (11726645_a_at) / RFU RCAN1 (11760418_a_at) / Fold change /veh RCAN1 (11760418_a_at) / RFU FAM167A (11723789_a_at) / Fold change /veh FAM167A (11723789_a_at) / RFU FAM26E (11764081_at) / Fold change /veh FAM26E (11764081_at) / RFU ISYNA1 (11749810_s_at) / Fold change /veh ISYNA1 (11749810_s_at) / RFU ACY1 (11761880_at) / Fold change /veh ACY1 (11761880_at) / RFU 11764098_at / Fold change /veh 11764098_at / RFU SAMD14 (11745864_x_at) / Fold change /veh SAMD14 (11745864_x_at) / RFU NPB (11741838_a_at) / Fold change /veh NPB (11741838_a_at) / RFU TMPRSS6 (11731388_a_at) / Fold change /veh TMPRSS6 (11731388_a_at) / RFU KRTAP10-2 (11738614_at) / Fold change /veh KRTAP10-2 (11738614_at) / RFU ARHGAP8 /// PRR5-ARHGAP8 (11727945_x_at) / Fold change /veh ARHGAP8 /// PRR5-ARHGAP8 (11727945_x_at) / RFU KRTAP5-7 /// NADSYN1 (11734609_at) / Fold change /veh KRTAP5-7 /// NADSYN1 (11734609_at) / RFU RASL12 (11751679_a_at) / Fold change /veh RASL12 (11751679_a_at) / RFU CDKN2B (11736163_a_at) / Fold change /veh CDKN2B (11736163_a_at) / RFU PRF1 (11729649_at) / Fold change /veh PRF1 (11729649_at) / RFU, ZNF638 /// ZNF638-IT1 / Fold change vs veh, ZNF638 /// ZNF638-IT1 / RFU, PANK3 / Fold change vs veh, PANK3 / RFU, SH3YL1 / Fold change vs veh, SH3YL1 / RFU, ZEB2 / Fold change vs veh, ZEB2 / RFU, NRIP1 / Fold change vs veh, NRIP1 / RFU, PTTG1IP / Fold change vs veh, PTTG1IP / RFU, CAPN2 / Fold change vs veh, CAPN2 / RFU, MED14 / Fold change vs veh, MED14 / RFU, SNORA58 / Fold change vs veh, SNORA58 / RFU, C1orf63 / Fold change vs veh, C1orf63 / RFU, LRRFIP1 / Fold change vs veh, LRRFIP1 / RFU, NDUFAF7 / Fold change vs veh, NDUFAF7 / RFU, SLC12A2 / Fold change vs veh, SLC12A2 / RFU, IBTK / Fold change vs veh, IBTK / RFU, ESF1 / Fold change vs veh, ESF1 / Fold change vs veh, TMEM50B / RFU, TAOK1 / Fold change vs veh, TAOK1 / RFU, ACBD3 / Fold change vs veh, ACBD3 / RFU, TMA16 / Fold change vs veh, TMA16 / RFU, RWDD3 / Fold change vs veh, RWDD3 / RFU, BCAT1 / Fold change vs veh, BCAT1 / RFU, EDEM3 / Fold change vs veh, EDEM3 / RFU, TMEM33 / Fold change vs veh, TMEM33 / RFU, WDR75 / Fold change vs veh, WDR75 / RFU, AHCTF1 / Fold change vs veh, AHCTF1 / RFU, TFRC / Fold change vs veh, TFRC / RFU, ZDHHC17 / Fold change vs veh, ZDHHC17 / RFU, NOM1 / Fold change vs veh, NOM1 / RFU, ARL8B / Fold change vs veh, ARL8B / RFU, ZBTB11 / Fold change vs veh, ZBTB11 / RFU, TAMM41 / Fold change vs veh, TAMM41 / RFU, KIAA1704 /// LOC100996395 / Fold change vs veh, KIAA1704 /// LOC100996395 / RFU, ING1 / Fold change vs veh, ING1 / RFU, TRMT61B / Fold change vs veh, TRMT61B / RFU, FUBP3 / Fold change vs veh, FUBP3 / RFU, TP53 / Fold change vs veh, TP53 / RFU, TNKS2 / Fold change vs veh, TNKS2 / RFU, ZFP14 / Fold change vs veh, ZFP14 / RFU, ACTR2 / Fold change vs veh, ACTR2 / RFU, PPP3R1 / Fold change vs veh, PPP3R1 / RFU, PIK3R1 / Fold change vs veh, PIK3R1 / RFU, HNRNPA1 / Fold change vs veh, HNRNPA1 / RFU, RNF170 / Fold change vs veh, RNF170 / RFU, ZNF28 / Fold change vs veh, ZNF28 / RFU, RNGTT / Fold change vs veh, RNGTT / RFU, OGT / Fold change vs veh, OGT / RFU, BRD1 / Fold change vs veh, BRD1 / RFU, MARS / Fold change vs veh, MARS / RFU, ZNF655 / Fold change vs veh, ZNF655 / RFU, FAHD1 / Fold change vs veh, FAHD1 / RFU, BDP1 / Fold change vs veh, BDP1 / RFU, LRRCC1 / Fold change vs veh, LRRCC1 / RFU, ARID1A / Fold change vs veh, ARID1A / RFU, ZNF146 / Fold change vs veh, ZNF146 / RFU, ZNF330 / Fold change vs veh, ZNF330 / RFU, GPN3 / Fold change vs veh, GPN3 / RFU, C9orf123 / Fold change vs veh, C9orf123 / RFU, N4BP2L2 / Fold change vs veh, N4BP2L2 / RFU, ARFIP1 / Fold change vs veh, ARFIP1 / RFU, FAM179B / Fold change vs veh, FAM179B / RFU, BCL10 / Fold change vs veh, BCL10 / RFU, UHRF1BP1L / Fold change vs veh, UHRF1BP1L / RFU, BET1 / Fold change vs veh, BET1 / RFU, CNOT2 / Fold change vs veh, CNOT2 / RFU, ZNF268 / Fold change vs veh, ZNF268 / Fold change vs veh, ZNF507 / RFU, DGCR2 / Fold change vs veh, DGCR2 / RFU, WDSUB1 / Fold change vs veh, WDSUB1 / Fold change vs veh, HSP90B1 /// MIR3652 / RFU, ADSS / Fold change vs veh, ADSS / RFU, GK / Fold change vs veh, GK / RFU, ZNF148 / Fold change vs veh, ZNF148 / RFU, TAF9 / Fold change vs veh, TAF9 / RFU, SLC1A5 / Fold change vs veh, SLC1A5 / RFU, SLMO2 / Fold change vs veh, SLMO2 / RFU, ABCC4 / Fold change vs veh, ABCC4 / RFU, LOC101060439 /// RAP1B / Fold change vs veh, LOC101060439 /// RAP1B / RFU, RFX7 / Fold change vs veh, RFX7 / RFU, GTPBP10 / Fold change vs veh, GTPBP10 / RFU, CNEP1R1 / Fold change vs veh, CNEP1R1 / RFU, BIVM-ERCC5 /// ERCC5 / Fold change vs veh, BIVM-ERCC5 /// ERCC5 / RFU, ILF3 / Fold change vs veh, ILF3 / RFU 11762660_at / Fold change /veh 11762660_at / RFU VCAN (11757783_s_at) / Fold change /veh VCAN (11757783_s_at) / RFU DDX43 (11728927_at) / Fold change /veh DDX43 (11728927_at) / RFU KRT8 (11758188_x_at) / Fold change /veh KRT8 (11758188_x_at) / RFU NKD1 (11759106_at) / Fold change /veh NKD1 (11759106_at) / RFU SRD5A1 (11742802_a_at) / Fold change /veh SRD5A1 (11742802_a_at) / RFU TPSAB1 /// TPSB2 (11721975_s_at) / Fold change /veh TPSAB1 /// TPSB2 (11721975_s_at) / RFU GSTM3 (11746129_a_at) / Fold change /veh GSTM3 (11746129_a_at) / RFU IL23R (11737362_x_at) / Fold change /veh IL23R (11737362_x_at) / RFU TMEM51 (11727254_a_at) / Fold change /veh TMEM51 (11727254_a_at) / RFU PIWIL2 (11732686_x_at) / Fold change /veh PIWIL2 (11732686_x_at) / RFU ORM1 (11744905_x_at) / Fold change /veh ORM1 (11744905_x_at) / RFU CCDC152 (11743942_at) / Fold change /veh CCDC152 (11743942_at) / RFU ECM1 (11717891_a_at) / Fold change /veh ECM1 (11717891_a_at) / RFU IL23R (11748794_a_at) / Fold change /veh IL23R (11748794_a_at) / RFU TNFAIP8L3 (11732012_x_at) / Fold change /veh TNFAIP8L3 (11732012_x_at) / RFU MBOAT4 (11741988_at) / Fold change /veh MBOAT4 (11741988_at) / RFU 11764193_at / Fold change /veh 11764193_at / RFU TMEM53 (11763286_at) / Fold change /veh TMEM53 (11763286_at) / RFU MAGEB2 (11727129_at) / Fold change /veh MAGEB2 (11727129_at) / RFU TMEM200A (11744735_a_at) / Fold change /veh TMEM200A (11744735_a_at) / RFU CCDC152 (11751479_a_at) / Fold change /veh CCDC152 (11751479_a_at) / RFU FAM211A (11726209_a_at) / Fold change /veh FAM211A (11726209_a_at) / RFU RGS16 (11746705_a_at) / Fold change /veh RGS16 (11746705_a_at) / RFU VCAN (11755009_s_at) / Fold change /veh VCAN (11755009_s_at) / RFU RHOB (11743442_s_at) / Fold change /veh RHOB (11743442_s_at) / RFU RGS16 (11720943_a_at) / Fold change /veh RGS16 (11720943_a_at) / RFU RGS16 (11720944_at) / Fold change /veh RGS16 (11720944_at) / RFU, VPS4B / Fold change vs veh, VPS4B / RFU, CREB1 / Fold change vs veh, CREB1 / RFU, DNAJC13 / Fold change vs veh, DNAJC13 / RFU, GNAQ / Fold change vs veh, GNAQ / RFU, CDK5R1 / Fold change vs veh, CDK5R1 / RFU, ZRANB3 / Fold change vs veh, ZRANB3 / RFU, CUL4A / Fold change vs veh, CUL4A / RFU, CCNY / Fold change vs veh, CCNY / RFU, UFL1 / Fold change vs veh, UFL1 / RFU, COG3 / Fold change vs veh, COG3 / RFU, DIAPH2 / Fold change vs veh, DIAPH2 / RFU, SKA2 / Fold change vs veh, SKA2 / RFU, AFF3 / Fold change vs veh, AFF3 / RFU, LMF1 / Fold change vs veh, LMF1 / RFU, IPO11 / Fold change vs veh, IPO11 / RFU, DFFB / Fold change vs veh, DFFB / RFU, FOXP1 / Fold change vs veh, FOXP1 / RFU, CARD8 / Fold change vs veh, CARD8 / RFU, STRN3 / Fold change vs veh, STRN3 / RFU, ADK / Fold change vs veh, ADK / RFU, RASSF2 / Fold change vs veh, RASSF2 / RFU, WIPF1 / Fold change vs veh, WIPF1 / RFU, LARP1B / Fold change vs veh, LARP1B / RFU, RASA1 / Fold change vs veh, RASA1 / RFU, RB1 / Fold change vs veh, RB1 / RFU, PPFIA1 / Fold change vs veh, PPFIA1 / RFU, MAT2A / Fold change vs veh, MAT2A / RFU, CCT5 / Fold change vs veh, CCT5 / RFU, WDR92 / Fold change vs veh, WDR92 / RFU, CUX1 / Fold change vs veh, CUX1 / RFU, TTC7A / Fold change vs veh, TTC7A / RFU, TMEM135 / Fold change vs veh, TMEM135 / RFU, DEPTOR / Fold change vs veh, DEPTOR / RFU, CPM / Fold change vs veh, CPM / RFU, DNAJB6 / Fold change vs veh, DNAJB6 / RFU, CACNA2D3 / Fold change vs veh, CACNA2D3 / RFU, DTX4 / Fold change vs veh, DTX4 / RFU, TFCP2 / Fold change vs veh, TFCP2 / RFU, GMCL1 /// GMCL1P1 / Fold change vs veh, GMCL1 /// GMCL1P1 / RFU, AEBP2 / Fold change vs veh, AEBP2 / RFU, SNHG1 /// SNORD22 /// SNORD25 /// SNORD26 /// SNORD27 /// SNORD28 /// SNORD29 /// SNORD31 / Fold change vs veh, SNHG1 /// SNORD22 /// SNORD25 /// SNORD26 /// SNORD27 /// SNORD28 /// SNORD29 /// SNORD31 / Fold change (Aza/veh), C12orf56 (ProbeSet 11735607_a_at) / Fold change (ACY-1035/veh), C12orf56 (ProbeSet 11735607_a_at) / Fold change (Aza/veh), FGFR1OP (ProbeSet 11751329_s_at) / Fold change (ACY-1035/veh), FGFR1OP (ProbeSet 11751329_s_at) / Fold change (Aza/veh), VPS36 (ProbeSet 11739960_a_at) / Fold change (ACY-1035/veh), VPS36 (ProbeSet 11739960_a_at) / RFU SYPL1 (11715823_x_at) / Fold change /veh SYPL1 (11715823_x_at) / RFU IGFBP7 (11715501_s_at) / Fold change /veh IGFBP7 (11715501_s_at) / RFU REEP3 (11722064_at) / Fold change /veh REEP3 (11722064_at) / RFU IGLL1 (11728026_x_at) / Fold change /veh IGLL1 (11728026_x_at): dose or concentration left out as unconfirmed
Settings: ProbeSet 11755425_a_at; LIST B

## Nc1ncn([C@@H]2O[C@H](CO)[C@@H](O)[C@H]2O)c(=O)n1 [azacitidine]
  RFU, FAM179B: 66.28 RFU
